According to US7655392B2, “Quenching methods for red blood cell inactivation process” (priority 2004, dated 2010):
Marks after values point to notes of the source that are not given here.

Test system: red blood cells
Test: Gel card agglutination with rabbit anti-acridine sera
Format: cell-based
Procedure: The reduction in modification of red blood cells in the methods of the present invention can be evaluated by several assays. In one assay, rabbit polyclonal sera that is reactive with acridine is produced by injecting New Zealand White rabbits with an acridine compound conjugated to KLH.
This is conjugated to KLH by adding 10 μL of the compound (10 mM in de-ionized water) to 990 μL of a buffered solution of KLH (10 mg/mL in 50 mM Phosphate, 150 mM NaCl, PBS pH=7.2 with proprietary stabilizer, Pierce Cat # 77600) and incubating at room temperature for over 20 hours. Following this incubaton, the conjugated KLH is isolated from the unreacted S-197 and S-197 by-products by passing through a desalting column (e.g. D-salt columns, Pierce) and eluting in PBS buffer. The colored fractions of the solutions are then combined and the KLH conjugates are characterized by the ratio of absorbance at 210 and 410 nm. The acridine-KLH conjugate solutions are mixed with Complete Freund's Adjuvant for intramuscular injection into the rabbits at multiple sites to immunize the rabbits. […] The resulting solution can be assayed for agglutination by passing through a Buffer Gel Card (Micro Typing Systems, Pompano Beach, Fla.). The gel cards are designed to allow non-agglutinated red blood cells to pass through, while cells agglutinated by reaction with the rabbit sera and cross reacting with the anti-rabbit antibody will remain at the top of the gel. The cards are scored as 0, 1+, 2+, 3+, or 4+, where 0 indicates all cells are intact and are at the bottom of the gel, while 4+ indicates complete agglutination, with all cells at the top of the gel.
In these, the appropriate amount of 600 mM stock was added, mixed with an appropriate volume of 8% dextrose to provide the same volume addition to each RBC sample where in one study, with varied glutathione concentrations, the pH was measured after adding glutathione and after adding PIC-1. […] Similar samples were also assessed for the inactivation of S. epidermidis. […] For gel card analysis, after incubation, the RBC were washed in BBS and were diluted in BBS to a final hematocrit of 4%. A 25 μL aliquot of each was mixed with 15 μL of rabbit polyclonal anti-acridine sera diluted either 1:4 or 1:100 in BBS and the mixture was incubated at 37° C. for 30 minutes. The cells were subsequently washed with 1.5 mL BBS. […]
Heterophile antibodies are naturally occurring antibodies that recognize RBC from another species in a non-specific fashion. […] All samples were mixed with quencher first, then PIC-1 at 0.2 mM.
The standard condition was included, i.e. 0.2 mM PIC-1 and 2 mM acidic glutathione added together.

**Q.** Which results are given for `O=C(CCNc1c2ccccc2nc2ccccc12)OCCN(CCCl)CCCl` [PIC-1]?
**A.** Gel card score (Table 11A samples, rabbit sera 1:4, all samples): 4+; Gel card score (Table 11B: 2 mM GSH, 1 eq. base, 0.2 mM PIC-1, sera 1:100, secondary 1:4): 4+; Gel card score (Table 11B: 2 mM GSH, 2 eq. base, 0.2 mM PIC-1, sera 1:100, secondary 1:4): 3+; Gel card score (Table 11B: 2 mM GSH, no added base, 0.2 mM PIC-1, sera 1:100, secondary 1:4): 3+; Gel card score (Table 11B: 5 mM GSH, 1 eq. base, 0.2 mM PIC-1, sera 1:100, secondary 1:4): 3+; Gel card score (Table 11B: 5 mM GSH, 2 eq. base, 0.2 mM PIC-1, sera 1:100, secondary 1:4): 2+; Gel card score (Table 11B: 5 mM GSH, no added base, 0.2 mM PIC-1, sera 1:100, secondary 1:4): 3+/MX*; Gel card score (Table 11B: 10 mM GSH, 1 eq. base, 0.2 mM PIC-1, sera 1:100, secondary 1:4): 2+; Gel card score (Table 11B: 10 mM GSH, 2 eq. base, 0.2 mM PIC-1, sera 1:100, secondary 1:4): 1+; Gel card score (Table 11B: 10 mM GSH, no added base, 0.2 mM PIC-1, sera 1:100, secondary 1:4): 3+/MX*; Gel card score (Table 11B: 20 mM GSH, 1 eq. base, 0.2 mM PIC-1, sera 1:100, secondary 1:4): 1+; Gel card score (Table 11B: 20 mM GSH, 2 eq. base, 0.2 mM PIC-1, sera 1:100, secondary 1:4): 0; Gel card score (Table 11B: 20 mM GSH, no added base, 0.2 mM PIC-1, sera 1:100, secondary 1:4): 3+; Gel card score (Table 12: 2 mM acidic GSH, 0.2 mM PIC-1, sera 1:4, no secondary Ab): 3+; Gel card score (Table 12: 2 mM acidic GSH, 0.2 mM PIC-1, sera 1:4, secondary Ab 1:4): 4+; Gel card score (Table 12: 2 mM acidic GSH, 0.2 mM PIC-1, sera 1:100, no secondary Ab): 0; Gel card score (Table 12: 2 mM acidic GSH, 0.2 mM PIC-1, sera 1:100, secondary Ab 1:4): 4; Gel card score (Table 12: 5 mM Cys 1eq, 0.2 mM PIC-1, sera 1:4, no secondary Ab): 1+; Gel card score (Table 12: 5 mM Cys 1eq, 0.2 mM PIC-1, sera 1:4, secondary Ab 1:4): 4+; Gel card score (Table 12: 5 mM Cys 1eq, 0.2 mM PIC-1, sera 1:100, no secondary Ab): 0; Gel card score (Table 12: 5 mM Cys 1eq, 0.2 mM PIC-1, sera 1:100, secondary Ab 1:4): 1*; Gel card score (Table 12: 10 mM Cys 1eq, 0.2 mM PIC-1, sera 1:4, no secondary Ab): 0; Gel card score (Table 12: 10 mM Cys 1eq, 0.2 mM PIC-1, sera 1:4, secondary Ab 1:4): 3+; Gel card score (Table 12: 10 mM Cys 1eq, 0.2 mM PIC-1, sera 1:100, no secondary Ab): 0; Gel card score (Table 12: 10 mM Cys 1eq, 0.2 mM PIC-1, sera 1:100, secondary Ab 1:4): 0; Gel card score (Table 12: 15 mM Cys 1eq, 0.2 mM PIC-1, sera 1:4, no secondary Ab): 0; Gel card score (Table 12: 15 mM Cys 1eq, 0.2 mM PIC-1, sera 1:4, secondary Ab 1:4): 1*; Gel card score (Table 12: 15 mM Cys 1eq, 0.2 mM PIC-1, sera 1:100, no secondary Ab): 0; Gel card score (Table 12: 15 mM Cys 1eq, 0.2 mM PIC-1, sera 1:100, secondary Ab 1:4): 0; Gel card score (Table 12: 20 mM Cys 1eq, 0.2 mM PIC-1, sera 1:4, no secondary Ab): 0; Gel card score (Table 12: 20 mM Cys 1eq, 0.2 mM PIC-1, sera 1:4, secondary Ab 1:4): 0; Gel card score (Table 12: 20 mM Cys 1eq, 0.2 mM PIC-1, sera 1:100, no secondary Ab): 0; Gel card score (Table 12: 20 mM Cys 1eq, 0.2 mM PIC-1, sera 1:100, secondary Ab 1:4): 0; Gel card score (Table 12: 20 mM GSH 2eq, 0.2 mM PIC-1, sera 1:4, no secondary Ab): 0; Gel card score (Table 12: 20 mM GSH 2eq, 0.2 mM PIC-1, sera 1:4, secondary Ab 1:4): 3+; Gel card score (Table 12: 20 mM GSH 2eq, 0.2 mM PIC-1, sera 1:100, no secondary Ab): 0; Gel card score (Table 12: 20 mM GSH 2eq, 0.2 mM PIC-1, sera 1:100, secondary Ab 1:4): 0; Gel card score (Table 12: […] Cys 1eq, 0.2 mM PIC-1, sera 1:4, no secondary Ab): 2+; Gel card score (Table 12: […] Cys 1eq, 0.2 mM PIC-1, sera 1:4, secondary Ab 1:4): 4+; Gel card score (Table 12: […] Cys 1eq, 0.2 mM PIC-1, sera 1:100, no secondary Ab): 0; Gel card score (Table 12: […] Cys 1eq, 0.2 mM PIC-1, sera 1:100, secondary Ab 1:4): 3; Gel card score (Table 13: 0.2 mM PIC-1 no quencher, blood sample 1, sera 1:4): 4+; Gel card score (Table 13: 0.2 mM PIC-1 no quencher, blood sample 1, sera 1:100): 4+; Gel card score (Table 13: 0.2 mM PIC-1 no quencher, blood sample 2, sera 1:4): 4+; Gel card score (Table 13: 0.2 mM PIC-1 no quencher, blood sample 2, sera 1:100): 4+; Gel card score (Table 13: 2 mM acidic GSH, 0.2 mM PIC-1, blood sample 1, sera 1:4): 4+; Gel card score (Table 13: 2 mM acidic GSH, 0.2 mM PIC-1, blood sample 1, sera 1:100): 4+; Gel card score (Table 13: 2 mM acidic GSH, 0.2 mM PIC-1, blood sample 2, sera 1:4): 4+; Gel card score (Table 13: 2 mM acidic GSH, 0.2 mM PIC-1, blood sample 2, sera 1:100): 4+; Gel card score (Table 13: 5 mM GSH 2eq/15 mM Cys 1eq, 0.2 mM PIC-1, blood sample 1, sera 1:4): 2
